Several values for one entry are separate records, joined by “and”; a condition that tells them apart may be missing. Equal values may be shown once. Inconclusive results and toxic doses are left out. Cut-off read from the data, not from the text of the source: active = T/C of 150% or more; inactive = T/C below 125%.
Tested on: L1210 leukemia ip in BDF1 mice, survival T/C
Test: NCI In Vivo Anticancer Drug Screen. Data for tumor model L1210 Leukemia (intraperitoneal) in B6D2F1 (BDF1) mice
Conditions: endpoint: mean survival time, higher = longer survival
Procedure, shortened: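 Transplantable tumor model; survival measured in treated vs vehicle control mice. Value = treated/control.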

[1] = dose: 100.0 mg/kg/injection, schedule: Q04DX002 (ip), vehicle: saline
[2] = dose: 200.0 mg/kg/injection, schedule: Q04DX002 (ip), vehicle: saline
[3] = dose: 100.0 mg/kg/injection, schedule: Q04DX003 (ip), vehicle: Klucel (hydroxypropylcellulose) (HPC)
[4] = dose: 100.0 mg/kg/injection, schedule: Q01DX001 (ip), vehicle: saline with Tween-80
[5] = dose: 400.0 mg/kg/injection, schedule: Q01DX001 (ip), vehicle: saline with Tween-80
[6] = dose: 100.0 mg/kg/injection, schedule: Q04DX003 (ip), vehicle: saline with Tween-80
[7] = dose: 200.0 mg/kg/injection, schedule: Q04DX003 (ip), vehicle: saline with Tween-80
[8] = dose: 100.0 mg/kg/injection, schedule: Q04DX002 (ip), vehicle: Klucel (hydroxypropylcellulose) (HPC)
[9] = dose: 50.0 mg/kg/injection, schedule: Q01DX001 (ip), vehicle: saline
[10] = dose: 100.0 mg/kg/injection, schedule: Q01DX001 (ip), vehicle: saline
[11] = dose: 200.0 mg/kg/injection, schedule: Q01DX001 (ip), vehicle: saline
[12] = dose: 400.0 mg/kg/injection, schedule: Q01DX001 (ip), vehicle: saline
[13] = dose: 200.0 mg/kg/injection, schedule: Q04DX002 (ip), vehicle: Klucel (hydroxypropylcellulose) (HPC)
[14] = dose: 400.0 mg/kg/injection, schedule: Q04DX002 (ip), vehicle: Klucel (hydroxypropylcellulose) (HPC)
[15] = dose: 100.0 mg/kg/injection, schedule: Q01DX009 (ip), vehicle: saline with Tween-80
[16] = dose: 200.0 mg/kg/injection, schedule: Q01DX009 (ip), vehicle: saline with Tween-80
[17] = dose: 400.0 mg/kg/injection, schedule: Q01DX009 (ip), vehicle: saline with Tween-80
[18] = dose: 100.0 mg/kg/injection, schedule: Q01DX009 (ip), vehicle: Klucel (hydroxypropylcellulose) (HPC)
[19] = dose: 200.0 mg/kg/injection, schedule: Q01DX009 (ip), vehicle: Klucel (hydroxypropylcellulose) (HPC)
[20] = dose: 400.0 mg/kg/injection, schedule: Q01DX009 (ip), vehicle: Klucel (hydroxypropylcellulose) (HPC)

Measured: T/C

Nc1ccc(S(=O)(=O)c2cc(O)c3ccccc3c2O)cc1
inactive: dose: 12.5 mg/kg/injection, schedule: Q01DX009 (ip), vehicle: saline 91 % of control | dose: 12.5 mg/kg/injection, schedule: Q04DX003 (ip), vehicle: Klucel (hydroxypropylcellulose) (HPC) 103 % of control | dose: 25.0 mg/kg/injection, schedule: Q01DX009 (ip), vehicle: saline 91 % of control | dose: 25.0 mg/kg/injection, schedule: Q04DX003 (ip), vehicle: Klucel (hydroxypropylcellulose) (HPC) 102 % of control | dose: 50.0 mg/kg/injection, schedule: Q04DX003 (ip), vehicle: Klucel (hydroxypropylcellulose) (HPC) 92 % of control

Cc1nc2ccccc2c(=O)n1-c1ccc(N(CCCl)CCCl)cc1
inactive: [1] 98 % of control | [2] 117 % of control | dose: 400.0 mg/kg/injection, schedule: Q04DX002 (ip), vehicle: saline 103 % of control

COC(=O)c1cc([N+](=O)[O-])c(Br)s1
inactive: [3] 93 % of control

CCOC(=O)/C(C#N)=C\c1ccc(N(CC)CC)cc1
inactive: dose: 100.0 mg/kg/injection, schedule: Q01DX001 (ip), vehicle: Klucel (hydroxypropylcellulose) (HPC) 91 % of control | dose: 200.0 mg/kg/injection, schedule: Q01DX001 (ip), vehicle: Klucel (hydroxypropylcellulose) (HPC) 86 % of control | dose: 400.0 mg/kg/injection, schedule: Q01DX001 (ip), vehicle: Klucel (hydroxypropylcellulose) (HPC) 89 % of control

C[C@@H]1CC[C@@]2(OC1)O[C@H]1C[C@H]3[C@@H]4CC=C5C(C)(C)C(=O)C(O)=C[C@]5(C)[C@H]4CC[C@]3(C)[C@H]1[C@@H]2C
inactive: dose: 100.0 mg/kg/injection, schedule: Q04DX003 (sc), vehicle: steriod suspending solution 98 % of control | dose: 200.0 mg/kg/injection, schedule: Q04DX003 (sc), vehicle: steriod suspending solution 110 % of control | dose: 400.0 mg/kg/injection, schedule: Q04DX003 (sc), vehicle: steriod suspending solution 98 % of control

COc1ccc(OC)c(CC=O)c1
inactive: dose: 100.0 mg/kg/injection, schedule: Q04DX003 (ip), vehicle: alcohol 97 % of control | dose: 200.0 mg/kg/injection, schedule: Q04DX003 (ip), vehicle: alcohol 101 % of control | dose: 400.0 mg/kg/injection, schedule: Q04DX003 (ip), vehicle: alcohol 103 % of control

CCCCCCCCCCCC(C1CCC(C)CC1)C1CCC(C)CC1 (stereo unspecified)
inactive: [4] 95 % of control | [5] 89 % of control

CCCCCCCCC(O)CCC (stereo unspecified)
inactive: dose: 100.0 mg/kg/injection, schedule: Q01DX009 (ip), vehicle: saline 102 % of control | dose: 200.0 mg/kg/injection, schedule: Q01DX009 (ip), vehicle: saline 105 % of control | dose: 400.0 mg/kg/injection, schedule: Q01DX009 (ip), vehicle: saline 102 % of control

CCOC(=O)C1SC(N)=NC1=O (stereo unspecified)
inactive: [6] 94 % of control | [7] 90 % of control

NC(=S)N/N=C/c1cccn1Cc1cc2c(cc1[N+](=O)[O-])OCO2
inactive: dose: 25.0 mg/kg/injection, schedule: Q04DX002 (ip), vehicle: Klucel (hydroxypropylcellulose) (HPC) 100 % of control | dose: 50.0 mg/kg/injection, schedule: Q04DX002 (ip), vehicle: Klucel (hydroxypropylcellulose) (HPC) 96 % of control | [8] 104 % of control

CC(C)=CCC(=O)Oc1ccccc1C(=O)O
inactive: [6] 92 % of control | [7] 102 % of control

O=c1c([N+](=O)[O-])c[nH]c2cc(Cl)ccc12
inactive: [9] 92 % of control | [10] 101 % of control | [11] 103 % of control | [12] 97 % of control

O=[N+]([O-])c1ccc(OCCOc2ccc([N+](=O)[O-])cc2)cc1
inactive: [10] 103 % of control | [11] 107 % of control | [12] 97 % of control

S=C(Cc1cc(Cl)ccc1Cl)N1CCOCC1
inactive: [8] 95 % of control | [13] 109 % of control | [14] 98 % of control

CC(=O)OC1C=CS(=O)(=O)C1 (stereo unspecified)
inactive: [15] 94 % of control | [16] 103 % of control | [17] 96 % of control

CCC(=O)OCNC(=O)NCc1ccco1
inactive: dose: 222.0 mg/kg/injection, schedule: Q01DX Z (ip), vehicle: methylcellulose (MC) 103 % of control | dose: 333.0 mg/kg/injection, schedule: Q01DX Z (ip), vehicle: methylcellulose (MC) 105 % of control | dose: 500.0 mg/kg/injection, schedule: Q01DX Z (ip), vehicle: methylcellulose (MC) 94 % of control

CC1=C(N2CCCC2)CCCC1=O
inactive: [1] 112 % of control | [2] 107 % of control

S=C(N/N=C\c1ccc2c(c1)OCO2)Nc1ccc2cn[nH]c2c1
inactive: dose: 50.0 mg/kg/injection, schedule: Q01DX001 (ip), vehicle: carboxymethylcellulose (CMC) 97 % of control | dose: 100.0 mg/kg/injection, schedule: Q01DX001 (ip), vehicle: carboxymethylcellulose (CMC) 100 % of control | dose: 200.0 mg/kg/injection, schedule: Q01DX001 (ip), vehicle: carboxymethylcellulose (CMC) 91 % of control

CCCCN(CCCC)C(=N)c1c(C)cc(C)cc1C
inactive: dose: 2.5 mg/kg/injection, schedule: Q01DX001 (ip), vehicle: saline 101 % of control | dose: 5.0 mg/kg/injection, schedule: Q01DX001 (ip), vehicle: saline 105 % of control and 106 % of control and 108 % of control | dose: 7.0 mg/kg/injection, schedule: Q01DX001 (ip), vehicle: saline 94 % of control and 104 % of control | dose: 10.0 mg/kg/injection, schedule: Q01DX001 (ip), vehicle: saline 98 % of control and 101 % of control and 110 % of control | dose: 15.0 mg/kg/injection, schedule: Q01DX001 (ip), vehicle: saline 102 % of control and 104 % of control

CCOc1ccccc1NC(=O)Nc1ccccc1C(F)(F)F
inactive: [18] 94 % of control | [19] 96 % of control | [20] 91 % of control

OC[CH2][Hg][Cl]
inactive: dose: 1.56 mg/kg/injection, schedule: Q01DX009 (ip), vehicle: saline 94 % of control | dose: 3.13 mg/kg/injection, schedule: Q01DX009 (ip), vehicle: saline 86 % of control

Nc1ncnc(N)c1NC(=O)c1ccc(OCc2ccccc2)c(Br)c1
inactive: [4] 93 % of control | dose: 200.0 mg/kg/injection, schedule: Q01DX001 (ip), vehicle: saline with Tween-80 97 % of control | [5] 96 % of control

CCOC(=O)Cc1nc2ccc(C)cc2[nH]1
inactive: [8] 100 % of control | [13] 100 % of control | [14] 115 % of control

CC(=O)OC1COC(SSC2OCC(OC(C)=O)C(OC(C)=O)C2OC(C)=O)C(OC(C)=O)C1OC(C)=O (stereo unspecified)
inactive: [10] 89 % of control | [11] 89 % of control | [12] 101 % of control

CCCCCCCCCC[As](=O)(O)CCCCCCCCCC
inactive: [9] 107 % of control | [10] 103 % of control | [11] 103 % of control | [12] 115 % of control

c1ccc2c(c1)NC1(CCCCC1)S2
inactive: [18] 99 % of control | [3] 104 % of control | [19] 99 % of control | dose: 200.0 mg/kg/injection, schedule: Q04DX003 (ip), vehicle: Klucel (hydroxypropylcellulose) (HPC) 91 % of control | [20] 91 % of control | dose: 400.0 mg/kg/injection, schedule: Q04DX003 (ip), vehicle: Klucel (hydroxypropylcellulose) (HPC) 93 % of control

CS(=O)(=O)OCC(OS(C)(=O)=O)C(COS(C)(=O)=O)OS(C)(=O)=O (stereo unspecified)
inactive: [15] 91 % of control | [6] 92 % of control | [16] 100 % of control | [7] 96 % of control | [17] 96 % of control | dose: 400.0 mg/kg/injection, schedule: Q04DX003 (ip), vehicle: saline with Tween-80 96 % of control

O=C(O)c1ccccc1N=Cc1ccccc1
inactive: dose: 100.0 mg/kg/injection, schedule: Q04DX002 (ip), vehicle: saline with Tween-80 93 % of control | dose: 200.0 mg/kg/injection, schedule: Q04DX002 (ip), vehicle: saline with Tween-80 120 % of control | dose: 400.0 mg/kg/injection, schedule: Q04DX002 (ip), vehicle: saline with Tween-80 101 % of control

O=C(NCc1ccccc1)Nc1ccccc1F
inactive: [18] 110 % of control | [19] 110 % of control | [20] 104 % of control

CC(=O)Oc1cc(C)cc(OC(C)=O)n1
inactive: [9] 104 % of control | [10] 98 % of control | [11] 98 % of control | [12] 96 % of control

— PubChem BioAssay AID248 (DTP/NCI, 2004)
